Assay results published in paper PMC6234229, “The role of loops B and C in determining the potentiation of GABAA receptors by midazolam” (Pharmacology Research & Perspectives, 2018).

Tests used:
Test in all cases: Midazolam potentiation of EC10 GABA currents, whole-cell patch clamp, HEK293T
Assay type in all cases: cell-based
[1] = target: T1, α5(S209I)β2γ2 GABAA receptor (Homo sapiens, UniProt P18507+P31644+P47870, S240I)
T1 construct: expressed in transfected cells; host or cells: HEK293T
Description: (§1) Human (Homo sapiens) GABAA subunits (α1‐6, β2, γ2s) were subcloned into pcDNA3.1+ vectors with a cytomegalovirus (CMV) promoter. The hβ2 and hα3 sequences were humanized rat (Rattus norvegicus) cDNA with amino acid substitutions made to match the human protein sequence. The α1‐3, α5, β2, and γ2s subunits were a generous gift from Neil L. Harrison (Columbia University Medical Center, NY). The α4 subunit was obtained from GenScript (Piscataway, NJ), and the α6 subunit was a generous gift from Robert L. McDonald (Vanderbilt University, TN). All point mutations (listed in Figure 1C) were introduced using the QuikChange Lightening site‐directed mutagenesis kit (Agilent Technologies, Santa Clara, CA) according to the manufacturer's instructions and were confirmed by sequencing (Eurofins MWG Operon, Louisville, KY).
(§2) Human embryonic kidney cells containing the SV40 T‐antigen (HEK293T) were acquired from American Type Culture Collection (ATCC®, Manassas, VA), catalogue number, CRL3216. HEK293T cells were maintained at 37°C and 5% CO2 in Eagle Minimum Essential Medium (MEM) supplemented with 5% fetal bovine serum (Atlanta Biologicals Inc., Flowery Branch, GA), 40 μM L‐glutamine, 100 U/mL penicillin and 0.1 mM streptomycin. Cells were passaged regularly when they reached 70% confluency using trypsin. Cells were not passaged more than 22 times. New cells were revived from frozen stocks at passage 2‐4. Cells used for in vitro electrophysiology experiments were grown on poly‐D‐lysine‐coated glass coverslips (No.2, VWR, Radnor, PA) and transfected with X‐tremeGENE (Roche Diagnostics, Indianapolis, IN) with the desired receptor subunit cDNAs at a 1:1:1 ratio to express αxβ2γ2s receptors (2 μg total cDNA) and with 0.5 μg green fluorescent protein (GFP) as an expression marker. The γ2s incorporation into receptors was tested with zinc inhibition assays regularly.24 Patch clamp experiments were performed on cells at 24‐72 hours post‐transfection. All experiments were performed at 22°C. Experiments consisted of at least five cells recorded per day from at least two transfections across 3‐4 days to control for cell health and transfection efficiency. At least three cells expressing wild‐type receptors were recorded on days that mutant receptors were tested to provide a time‐matched expression control. All reagents were purchased from Sigma‐Aldrich (St. Louis, MO) unless otherwise stated.
(§3) Extracellular solution contained 161 mM NaCl, 3 mM KCl, 1 mM MgCl2, 1.5 mM CaCl2, 10 mM HEPES, and 6 mM D‐glucose, adjusted to pH 7.4 with NaOH (320‐330 mOsm). […] The perfusion system was controlled by protocols written in pClamp 9 (Molecular Devices, LLC., Sunnyvale, CA). Whole‐cell currents were recorded at ‐60 mV, filtered at 100 Hz and sampled at 200 Hz with a MultiClamp 700B amplifier (Molecular Devices, LLC) and DigiData 1322A (Molecular Devices, LLC) digitizer. […] Cells were recorded with the midazolam protocol no more than two times to avoid desensitization and incomplete washout or irreversible modulation.
(§4) Recordings were analyzed using MATLAB (Math Works, Inc., Natick, MA). […] The maximum peak current, EC50 and Hill coefficient were estimated for assays from each cell. When Hill parameters are estimated from whole‐cell recordings, the changes in the parameters across receptor conditions can be ascribed to the following changes in receptor physiology. Changes in maximum current can be due to changes in the single‐channel conductance or the rate of desensitization. Changes in cell surface receptor expression can cause minor changes in maximum current, but are unlikely to occur in the time course of our experimental protocol. […] More often minor changes in the Hill coefficient are attributed to the altered homogeneity in the receptor population expressed by the HEK293T cell. For example, a shallower Hill coefficient could be caused by a shift in the population of receptors from mostly αβγ receptors to a combination of both αβ and αβγ receptors.

α4β2γ2 GABAA receptor = target: T2, α4β2γ2 GABAA receptor (Homo sapiens, UniProt P18507+P47870+P48169); conditions: for Midazolam potentiation (%): α4β2γ2
T2 construct: expressed in transfected cells; host or cells: HEK293T
Description: as §1, §2, §3, §4

[2] = target: T3, α3(T187P)β2γ2 GABAA receptor (Homo sapiens, UniProt P18507+P34903+P47870, T215P)
T3 construct: expressed in transfected cells; host or cells: HEK293T
Description: as §1, §2, §3, §4

[3] = target: T4, α4(P161T)β2γ2 GABAA receptor (Homo sapiens, UniProt P18507+P47870+P48169, P196T); conditions: for Midazolam potentiation (%): α4(P161T)
T4 construct: expressed in transfected cells; host or cells: HEK293T
Description: as §1, §2, §3, §4

α5β2γ2 GABAA receptor = target: T5, α5β2γ2 GABAA receptor (Homo sapiens, UniProt P18507+P31644+P47870)
T5 construct: expressed in transfected cells; host or cells: HEK293T
Description: as §1, §2, §3, §4

[4] = target: T6, α1(H102R)β2γ2 GABAA receptor (Homo sapiens, UniProt P14867+P18507+P47870, H129R)
T6 construct: expressed in transfected cells; host or cells: HEK293T
Description: as §1, §2, §3, §4

[5] = target: T7, α4(R100H)β2γ2 GABAA receptor (Homo sapiens, UniProt P18507+P47870+P48169, R135H)
T7 construct: expressed in transfected cells; host or cells: HEK293T
Description: as §1, §2, §3, §4

T6 sequence (P14867 28-456 H129R): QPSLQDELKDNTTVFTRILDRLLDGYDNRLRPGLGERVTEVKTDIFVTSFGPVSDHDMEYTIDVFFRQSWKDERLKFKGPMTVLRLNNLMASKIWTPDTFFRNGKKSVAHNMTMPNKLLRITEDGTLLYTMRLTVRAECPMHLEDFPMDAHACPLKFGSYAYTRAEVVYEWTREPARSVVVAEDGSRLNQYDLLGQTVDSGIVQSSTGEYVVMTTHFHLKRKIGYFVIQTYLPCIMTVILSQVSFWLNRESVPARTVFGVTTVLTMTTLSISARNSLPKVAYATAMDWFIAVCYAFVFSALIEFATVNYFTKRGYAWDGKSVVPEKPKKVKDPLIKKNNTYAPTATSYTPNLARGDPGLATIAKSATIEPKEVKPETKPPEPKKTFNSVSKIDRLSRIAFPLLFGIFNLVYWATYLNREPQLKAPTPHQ
T6 sequence (P47870 25-512 limits assumed): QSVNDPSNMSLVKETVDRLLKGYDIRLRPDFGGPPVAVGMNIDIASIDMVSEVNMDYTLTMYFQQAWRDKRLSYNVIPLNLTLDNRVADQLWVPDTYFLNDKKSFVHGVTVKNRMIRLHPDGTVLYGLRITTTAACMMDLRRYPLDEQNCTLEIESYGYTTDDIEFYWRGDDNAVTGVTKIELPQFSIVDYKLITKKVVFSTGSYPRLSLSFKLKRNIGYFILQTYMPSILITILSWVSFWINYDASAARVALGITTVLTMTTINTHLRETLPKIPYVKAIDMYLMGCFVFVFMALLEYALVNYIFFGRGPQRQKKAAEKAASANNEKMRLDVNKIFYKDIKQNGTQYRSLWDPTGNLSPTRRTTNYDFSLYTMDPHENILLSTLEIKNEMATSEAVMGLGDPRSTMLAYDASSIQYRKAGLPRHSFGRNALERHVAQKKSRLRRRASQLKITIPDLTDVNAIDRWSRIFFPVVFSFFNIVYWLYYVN
T6 sequence (P18507 40-467 isoform P18507-1 limits assumed, stated change not applied): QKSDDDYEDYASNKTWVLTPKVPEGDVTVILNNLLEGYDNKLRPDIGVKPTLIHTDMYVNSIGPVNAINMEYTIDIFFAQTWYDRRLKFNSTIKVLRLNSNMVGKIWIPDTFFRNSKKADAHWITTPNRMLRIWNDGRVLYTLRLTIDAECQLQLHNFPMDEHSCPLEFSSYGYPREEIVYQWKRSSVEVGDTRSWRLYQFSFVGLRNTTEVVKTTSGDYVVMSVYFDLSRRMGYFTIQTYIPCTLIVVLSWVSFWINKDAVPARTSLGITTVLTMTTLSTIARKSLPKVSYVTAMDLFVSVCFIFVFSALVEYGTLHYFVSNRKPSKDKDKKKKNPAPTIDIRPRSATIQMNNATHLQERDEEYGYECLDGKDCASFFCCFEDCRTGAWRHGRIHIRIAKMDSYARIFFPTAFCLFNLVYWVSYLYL
T4 sequence (P48169 36-554 P196T): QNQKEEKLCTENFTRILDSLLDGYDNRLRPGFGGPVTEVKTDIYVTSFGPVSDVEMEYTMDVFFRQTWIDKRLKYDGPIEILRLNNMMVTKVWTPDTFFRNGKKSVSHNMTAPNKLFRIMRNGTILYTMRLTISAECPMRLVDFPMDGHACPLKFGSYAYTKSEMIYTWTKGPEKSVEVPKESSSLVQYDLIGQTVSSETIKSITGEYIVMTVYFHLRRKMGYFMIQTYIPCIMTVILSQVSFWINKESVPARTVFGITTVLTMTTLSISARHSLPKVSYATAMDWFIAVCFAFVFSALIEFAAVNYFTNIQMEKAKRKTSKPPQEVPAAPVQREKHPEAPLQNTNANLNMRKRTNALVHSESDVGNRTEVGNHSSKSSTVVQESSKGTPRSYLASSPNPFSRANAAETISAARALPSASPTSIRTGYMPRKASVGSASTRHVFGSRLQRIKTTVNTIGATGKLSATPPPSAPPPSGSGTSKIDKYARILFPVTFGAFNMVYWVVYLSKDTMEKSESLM
T4 sequence (P47870 26-474 isoform P47870-1 limits assumed, stated change not applied): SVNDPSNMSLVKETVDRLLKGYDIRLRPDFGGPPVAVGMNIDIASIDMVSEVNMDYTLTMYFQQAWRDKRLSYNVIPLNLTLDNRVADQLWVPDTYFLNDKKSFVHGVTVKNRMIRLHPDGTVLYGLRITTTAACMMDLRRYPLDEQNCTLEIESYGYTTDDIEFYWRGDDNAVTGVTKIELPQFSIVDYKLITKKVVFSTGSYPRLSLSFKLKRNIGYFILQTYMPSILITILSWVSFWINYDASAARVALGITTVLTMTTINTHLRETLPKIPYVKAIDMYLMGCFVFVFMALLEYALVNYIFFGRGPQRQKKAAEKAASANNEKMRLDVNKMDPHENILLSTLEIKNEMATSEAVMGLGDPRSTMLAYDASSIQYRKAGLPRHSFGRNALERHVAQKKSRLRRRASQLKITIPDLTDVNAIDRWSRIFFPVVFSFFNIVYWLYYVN
T4 sequence (P18507 40-467 isoform P18507-1 limits assumed, stated change not applied): as the sequence (P18507 40-467 isoform P18507-1 limits assumed, stated change not applied) above
T5 sequence (P31644 32-462): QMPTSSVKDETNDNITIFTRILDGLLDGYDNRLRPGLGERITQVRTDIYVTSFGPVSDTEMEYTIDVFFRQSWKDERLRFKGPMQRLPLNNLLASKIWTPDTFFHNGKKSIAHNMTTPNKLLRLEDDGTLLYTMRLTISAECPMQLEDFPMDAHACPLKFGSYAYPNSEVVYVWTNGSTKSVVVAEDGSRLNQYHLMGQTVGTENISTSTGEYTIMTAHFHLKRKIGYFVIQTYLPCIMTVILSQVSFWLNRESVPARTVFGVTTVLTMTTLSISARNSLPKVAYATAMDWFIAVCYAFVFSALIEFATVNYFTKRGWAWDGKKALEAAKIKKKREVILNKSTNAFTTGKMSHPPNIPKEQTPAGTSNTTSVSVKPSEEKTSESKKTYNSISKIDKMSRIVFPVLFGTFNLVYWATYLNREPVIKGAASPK
T5 sequence (P47870 26-474 isoform P47870-1 limits assumed): as the sequence (P47870 26-474 isoform P47870-1 limits assumed, stated change not applied) above
T5 sequence (P18507 40-467 isoform P18507-1 limits assumed): as the sequence (P18507 40-467 isoform P18507-1 limits assumed, stated change not applied) above
T3 sequence (P34903 29-492 T215P): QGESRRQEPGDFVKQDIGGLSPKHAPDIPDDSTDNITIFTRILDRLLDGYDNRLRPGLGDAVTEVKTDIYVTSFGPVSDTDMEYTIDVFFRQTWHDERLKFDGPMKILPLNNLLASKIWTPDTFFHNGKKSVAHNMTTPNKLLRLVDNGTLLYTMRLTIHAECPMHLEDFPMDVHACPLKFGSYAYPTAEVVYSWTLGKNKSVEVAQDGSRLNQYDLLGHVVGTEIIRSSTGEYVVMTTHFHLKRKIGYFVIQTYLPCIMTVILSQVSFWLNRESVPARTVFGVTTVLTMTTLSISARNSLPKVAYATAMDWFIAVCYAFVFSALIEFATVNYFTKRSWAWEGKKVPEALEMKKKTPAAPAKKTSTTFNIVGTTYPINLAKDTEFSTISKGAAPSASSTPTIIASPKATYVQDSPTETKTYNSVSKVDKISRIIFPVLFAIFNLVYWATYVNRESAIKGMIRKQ
T3 sequence (P47870 25-512 limits assumed): as the sequence (P47870 25-512 limits assumed) above
T3 sequence (P18507 40-467 isoform P18507-1 limits assumed, stated change not applied): as the sequence (P18507 40-467 isoform P18507-1 limits assumed, stated change not applied) above
T2 sequence (P48169 36-554): as the sequence (P48169 36-554 P196T) above, with T161P counted along it
T2 sequence (P47870 26-474 isoform P47870-1 limits assumed): as the sequence (P47870 26-474 isoform P47870-1 limits assumed, stated change not applied) above
T2 sequence (P18507 40-467 isoform P18507-1 limits assumed): as the sequence (P18507 40-467 isoform P18507-1 limits assumed, stated change not applied) above
T7 sequence (P48169 36-554 R135H): as the sequence (P48169 36-554 P196T) above, with R100H, T161P counted along it
T7 sequence (P47870 26-474 isoform P47870-1 limits assumed, stated change not applied): as the sequence (P47870 26-474 isoform P47870-1 limits assumed, stated change not applied) above
T7 sequence (P18507 40-467 isoform P18507-1 limits assumed, stated change not applied): as the sequence (P18507 40-467 isoform P18507-1 limits assumed, stated change not applied) above
T1 sequence (P31644 32-462 S240I): as the sequence (P31644 32-462) above, with S209I counted along it
T1 sequence (P47870 26-474 isoform P47870-1 limits assumed, stated change not applied): as the sequence (P47870 26-474 isoform P47870-1 limits assumed, stated change not applied) above
T1 sequence (P18507 40-467 isoform P18507-1 limits assumed, stated change not applied): as the sequence (P18507 40-467 isoform P18507-1 limits assumed, stated change not applied) above

Cc1ncc2n1-c1ccc(Cl)cc1C(c1ccccc1F)=NC2 [midazolam]
EC50 [1]: 65.4 ± 2.76 nM | Midazolam potentiation (%) ([1]; 10 nM MDZ + EC10 GABA, α5(S209I)): 15.95 ± 6.58% | Midazolam potentiation (%) ([1]; 50 nM MDZ + EC10 GABA, α5(S209I)): 62.43 ± 11.51% | Midazolam potentiation (%) ([1]; 100 nM MDZ + EC10 GABA, α5(S209I)): 127.16 ± 19.87% | Midazolam potentiation (%) ([1]; 500 nM MDZ + EC10 GABA, α5(S209I)): 168.94 ± 23.17% | Midazolam potentiation (%) ([1]; 1000 nM MDZ + EC10 GABA, α5(S209I)): 170.92 ± 25.92% | increase of maximum midazolam potentiation relative to wildtype ([1]; α5(S209I) vs α5β2γ2): approximately 63% | Max potentiation (%) ([1]; α5(S209I), Hill fit, midazolam 10-1000 nM + EC10 GABA): 175.1 ± 26.6% | Hill coefficient ([1]; α5(S209I), midazolam Hill fit): 2.232 ± 0.334 | Midazolam potentiation (%) (α4β2γ2 GABAA receptor; 10 nM MDZ + EC10 GABA): 10.98 ± 3.61% | Midazolam potentiation (%) (α4β2γ2 GABAA receptor; 50 nM MDZ + EC10 GABA): 13.30 ± 4.65% | Midazolam potentiation (%) (α4β2γ2 GABAA receptor; 100 nM MDZ + EC10 GABA): 15.15 ± 4.85% | Midazolam potentiation (%) (α4β2γ2 GABAA receptor; 500 nM MDZ + EC10 GABA): 15.98 ± 5.42% | Midazolam potentiation (%) (α4β2γ2 GABAA receptor; 1000 nM MDZ + EC10 GABA): 17.89 ± 4.82% | responsiveness to midazolam potentiation (α4β2γ2 GABAA receptor; wildtype α4β2γ2): no notable midazolam potentiation | EC50 [2]: 55.2 ± 2.91 nM | Midazolam potentiation (%) ([2]; 10 nM MDZ + EC10 GABA, α3(T187P)): 23.71 ± 6.37% | Midazolam potentiation (%) ([2]; 50 nM MDZ + EC10 GABA, α3(T187P)): 92.47 ± 12.51% | Midazolam potentiation (%) ([2]; 100 nM MDZ + EC10 GABA, α3(T187P)): 168.56 ± 23.08% | Midazolam potentiation (%) ([2]; 500 nM MDZ + EC10 GABA, α3(T187P)): 212.97 ± 30.06% | Midazolam potentiation (%) ([2]; 1000 nM MDZ + EC10 GABA, α3(T187P)): 213.30 ± 30.99% | Max potentiation (%) ([2]; α3(T187P), Hill fit, midazolam 10-1000 nM + EC10 GABA): 219.6 ± 32.3% | Hill coefficient ([2]; α3(T187P), midazolam Hill fit): 1.963 ± 0.224 | Midazolam potentiation (%) ([3]; 10 nM MDZ + EC10 GABA): 13.22 ± 3.76% | Midazolam potentiation (%) ([3]; 50 nM MDZ + EC10 GABA): 10.31 ± 5.64% | Midazolam potentiation (%) ([3]; 100 nM MDZ + EC10 GABA): 14.28 ± 5.87% | Midazolam potentiation (%) ([3]; 500 nM MDZ + EC10 GABA): 21.94 ± 5.61% | Midazolam potentiation (%) ([3]; 1000 nM MDZ + EC10 GABA): 26.43 ± 9.72% | responsiveness to midazolam potentiation ([3]; α4(P161T)β2γ2): failed to confer midazolam responsiveness | EC50 (α5β2γ2 GABAA receptor): 52.8 ± 3.48 nM | Midazolam potentiation (%) (α5β2γ2 GABAA receptor; 10 nM MDZ + EC10 GABA, α5β2γ2): 20.47 ± 10.62% | Midazolam potentiation (%) (α5β2γ2 GABAA receptor; 50 nM MDZ + EC10 GABA, α5β2γ2): 63.82 ± 19.54% | Midazolam potentiation (%) (α5β2γ2 GABAA receptor; 100 nM MDZ + EC10 GABA, α5β2γ2): 113.29 ± 28.44% | Midazolam potentiation (%) (α5β2γ2 GABAA receptor; 500 nM MDZ + EC10 GABA, α5β2γ2): 130.90 ± 29.52% | Midazolam potentiation (%) (α5β2γ2 GABAA receptor; 1000 nM MDZ + EC10 GABA, α5β2γ2): 123.12 ± 26.08% | Max potentiation (%) (α5β2γ2 GABAA receptor; α5β2γ2, Hill fit, midazolam 10-1000 nM + EC10 GABA): 107.9 ± 20.3% | Hill coefficient (α5β2γ2 GABAA receptor; α5β2γ2, midazolam Hill fit): 2.632 ± 0.329 | responsiveness to midazolam potentiation [4]: abolished the ability of receptors to respond to midazolam potentiation | Midazolam potentiation (%) ([4]; 10 nM MDZ + EC10 GABA): 8.10 ± 3.48% | Midazolam potentiation (%) ([4]; 50 nM MDZ + EC10 GABA): 13.07 ± 4.69% | Midazolam potentiation (%) ([4]; 100 nM MDZ + EC10 GABA): 16.99 ± 4.42% | Midazolam potentiation (%) ([4]; 500 nM MDZ + EC10 GABA): 26.78 ± 5.31% | Midazolam potentiation (%) ([4]; 1000 nM MDZ + EC10 GABA): 28.87 ± 6.18% | EC50 [5]: 74 ± 3.44 nM | Midazolam potentiation (%) ([5]; 10 nM MDZ + EC10 GABA, α4(R100H)): 26.12 ± 4.95% | Midazolam potentiation (%) ([5]; 50 nM MDZ + EC10 GABA, α4(R100H)): 54.65 ± 8.66% | Midazolam potentiation (%) ([5]; 100 nM MDZ + EC10 GABA, α4(R100H)): 87.48 ± 13.68% | Midazolam potentiation (%) ([5]; 500 nM MDZ + EC10 GABA, α4(R100H)): 117.13% | Midazolam potentiation (%) ([5]; 1000 nM MDZ + EC10 GABA, α4(R100H)): 125.77% | Max potentiation (%) ([5]; α4(R100H), Hill fit, midazolam 10-1000 nM + EC10 GABA): 113.8 ± 21.6% | Hill coefficient ([5]; α4(R100H), midazolam Hill fit): 1.187 ± 0.150
